Data reported in the supplement of paper PMC8671470.

Experiments:
Details in all cases: 72 h
[1] = tested on: myeloid leukemia patient primary cells Pat.10; assay: cell viability (% survival relative to DMSO control); higher = less cytotoxic
In short: (§1)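 Mononuclear cells from patients with AML or CML were thawed, purified on Ficoll and placed in RPMI 1640 with 10% FBS at 10,000 cells/well on 384-well plates. The plates came pre-printed with 70 compounds at five tenfold concentrations spanning 1–10,000 nM, in duplicate, and cells were exposed for 72 h. CellTiter-Glo gave viability, scaled between DMSO wells and wells with 10 μM proteasome inhibitor. Where reported, area under the curve was obtained from log-logistic fits with four parameters using the drc and PharmacoGx R packages.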

[2] = tested on: myeloid leukemia patient primary cells Pat.11; assay: as above
In short: as §1

[3] = tested on: myeloid leukemia patient primary cells Pat.12; assay: as above
In short: as §1

[4] = tested on: myeloid leukemia patient primary cells Pat.13; assay: as above
In short: as §1

[5] = tested on: myeloid leukemia patient primary cells Pat.14; assay: as above
In short: as §1

[6] = tested on: myeloid leukemia patient primary cells Pat.15; assay: as above
In short: as §1

[7] = tested on: myeloid leukemia patient primary cells Pat.1; assay: as above
In short: as §1

[8] = tested on: myeloid leukemia patient primary cells Pat.2; assay: as above
In short: as §1

[9] = tested on: myeloid leukemia patient primary cells Pat.3; assay: as above
In short: as §1

[10] = tested on: myeloid leukemia patient primary cells Pat.4; assay: as above
In short: as §1

[11] = tested on: myeloid leukemia patient primary cells Pat.5; assay: as above
In short: as §1

[12] = tested on: myeloid leukemia patient primary cells Pat.6; assay: as above
In short: as §1

[13] = tested on: myeloid leukemia patient primary cells Pat.7; assay: as above
In short: as §1

[14] = tested on: myeloid leukemia patient primary cells Pat.8; assay: as above
In short: as §1

[15] = tested on: myeloid leukemia patient primary cells Pat.9; assay: as above
In short: as §1

[16] = tested on: myeloid leukemia patient primary cells Pat.10; assay: area under dose-response curve (viability, 1 nM-10 uM) (fraction (0-1)); higher = more sensitive
Procedure: (§2)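 AUC (0–1, higher = more sensitive) of the 5-point dose–response (1 nM–10 µM, 72 h, CellTiter-Glo) in primary AML/CML patient mononuclear cells. 0.030103 is the floor for inactive compounds.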

[17] = tested on: myeloid leukemia patient primary cells Pat.11; assay: as above
Procedure: as §2

[18] = tested on: myeloid leukemia patient primary cells Pat.12; assay: as above
Procedure: as §2

[19] = tested on: myeloid leukemia patient primary cells Pat.13; assay: as above
Procedure: as §2

[20] = tested on: myeloid leukemia patient primary cells Pat.14; assay: as above
Procedure: as §2

[21] = tested on: myeloid leukemia patient primary cells Pat.15; assay: as above
Procedure: as §2

[22] = tested on: myeloid leukemia patient primary cells Pat.1; assay: as above
Procedure: as §2

[23] = tested on: myeloid leukemia patient primary cells Pat.2; assay: as above
Procedure: as §2

[24] = tested on: myeloid leukemia patient primary cells Pat.3; assay: as above
Procedure: as §2

[25] = tested on: myeloid leukemia patient primary cells Pat.4; assay: as above
Procedure: as §2

[26] = tested on: myeloid leukemia patient primary cells Pat.5; assay: as above
Procedure: as §2

[27] = tested on: myeloid leukemia patient primary cells Pat.6; assay: as above
Procedure: as §2

[28] = tested on: myeloid leukemia patient primary cells Pat.7; assay: as above
Procedure: as §2

[29] = tested on: myeloid leukemia patient primary cells Pat.8; assay: as above
Procedure: as §2

[30] = tested on: myeloid leukemia patient primary cells Pat.9; assay: as above
Procedure: as §2

CC(C)c1onc(-c2c(Cl)cccc2Cl)c1COc1ccc(/C=C/c2cccc(C(=O)O)c2)c(Cl)c1 [GW 4064]
cell viability [%]
Details	1 nM	10 nM	100 nM	1000 nM	10000 nM
[1]	61.6	86.6	38.4	8.43	9.05
[2]	96.4	95.9	99.3	90.6	74.3
[3]	92.5	94.8	97.5	95.5	89.8
[4]	99.3	88.8	78.5	81.7	52.7
[5]	84.9	69.6	66	63.2	2.05
[6]	92.6	95.2	95.5	98	89.7
[7]	> 100	91.2	95.4	99.2	68.8
[8]	98.1	94.5	84.4	96.8	92.7
[9]	83.5	78.7	86.3	16.1	0.177
[10]	81.1	92	96.4	91.2	64
[11]	80.1	49.1	67.6	2.27	0.265
[12]	> 100	94.1	99.2	92.7	62.8
[13]	64.4	67.8	67.5	40.3	< 0
[14]	91.6	88.4	64	90.2	81.9
[15]	59.1	40.4	48.8	3.95	< 0

Details	area under dose-response curve
[16]	0.473
[17]	< 0.0301
[18]	< 0.0301
[19]	0.0666
[20]	0.18
[21]	< 0.0301
[22]	< 0.0301
[23]	< 0.0301
[24]	0.323
[25]	< 0.0301
[26]	0.413
[27]	0.0544
[28]	0.278
[29]	< 0.0301
[30]	0.539

CCn1c(=O)/c(=C2\Sc3ccccc3N2C)s/c1=C\c1cccc[n+]1CC.[Cl-] [MKT-077]
cell viability [%]
Details	1 nM	10 nM	100 nM	1000 nM	10000 nM
[1]	35.1	83.7	> 100	54.6	67.1
[2]	96.9	95.6	99.3	> 100	88.3
[3]	95.4	95.7	97	97.5	91.4
[4]	85.3	83.5	92.6	88.8	72.1
[5]	49.3	84.2	> 100	100	61.8
[6]	86.1	93.1	87.2	98.8	82.1
[7]	88.7	75.1	99.5	96.7	79.3
[8]	93.4	99.4	98.1	99.9	85.4
[9]	46.3	84.2	> 100	> 100	80.4
[10]	92.1	92.2	99.6	83.8	61.6
[11]	2.39	85	95.2	69.1	27.4
[12]	86.5	> 100	> 100	97.5	76.2
[13]	60.4	97.6	87.8	78.2	63.4
[14]	71.5	87.3	95.1	82.5	67.2
[15]	7.21	82.2	86.3	78.1	48

Details	area under dose-response curve
[17]	< 0.0301
[18]	< 0.0301
[19]	0.0334
[20]	< 0.0301
[21]	< 0.0301
[22]	< 0.0301
[23]	< 0.0301
[24]	< 0.0301
[26]	0.119
[27]	0.0306
[28]	0.0538
[29]	0.0466
[30]	0.0402

O=C(CCl)N(CCCNC(=O)C(F)(F)F)c1ccc([N+](=O)[O-])cc1 [ML-175]
cell viability [%]
Details	1 nM	10 nM	100 nM	1000 nM	10000 nM
[1]	81.5	93.1	17.1	15.7	5.41
[2]	95.5	97	86.2	67.7	1.51
[3]	96.2	98.2	80.4	58.4	1.48
[4]	92.9	88.6	71.6	62.1	3.76
[5]	87.8	82.6	29.4	51.2	2.44
[6]	95	80.2	86.1	75.6	1.52
[7]	85.7	78.3	67.8	72.8	< 0
[8]	94.8	93.7	89.3	82.8	4.31
[9]	96.1	96.2	23.6	46.1	0.554
[10]	97.6	79.3	65.7	42.1	1.37
[11]	99.9	51.6	< 0	2.01	< 0
[12]	97.1	94.4	70.2	61.2	1.29
[13]	> 100	89.4	11.6	43.6	50
[14]	87.1	89	85.1	65.8	0.0301
[15]	64.6	81.5	7.88	7.21	0.492

Details	area under dose-response curve
[16]	0.542
[17]	0.199
[18]	0.221
[19]	0.19
[20]	0.488
[21]	0.159
[22]	0.149
[23]	0.147
[24]	0.498
[25]	0.29
[26]	0.744
[27]	0.204
[28]	0.533
[29]	0.192
[30]	0.593
